From patent US8907098B2, “Inhibitors of sphingosine kinase” (MERCK PATENT GmbH, priority 2009, dated 2014)

Target: modified SphK1 (Homo sapiens, UniProt Q9NYA1)
Experiment: SphK1 biochemical kinase assay (384-well flashplate)
Settings: IC50 ranges; 5 nM modified SphK1, 1 μM ATP, 30° C., 120 min; read-out: SphK1 Inhibition IC50
Procedure: The kinase assay is carried out as a 384-well flashplate assay.
5 nM modified SphK1, 800 nM omega-biotinyl-D-erythro-sphingosine and 1 μM ATP (with 0.3 μCi of ^33P-ATP/well) are incubated in a total volume of 50 μl (25 mM HEPES, 5 mM MgCl2, 1 mM dithiothreitol, 0.01% of Brij35, 0.1% of BSA (fatty acid-free), pH 7.4) without or with test substance (5-10 concentrations) at 30° C. for 120 min. The reaction is terminated using 25 μl of 200 mM EDTA solution, filtered off with suction at room temperature after 30 min, and the cavities are washed 3 times with 100 μl of 0.9% NaCl solution. The non-specific proportion of the kinase reaction (blank) is determined using 0.5 mM NaCl. Radioactivity is measured in topcount. IC50 values are calculated using RS1.

Sequence of modified SphK1 (Q9NYA1 whole entry): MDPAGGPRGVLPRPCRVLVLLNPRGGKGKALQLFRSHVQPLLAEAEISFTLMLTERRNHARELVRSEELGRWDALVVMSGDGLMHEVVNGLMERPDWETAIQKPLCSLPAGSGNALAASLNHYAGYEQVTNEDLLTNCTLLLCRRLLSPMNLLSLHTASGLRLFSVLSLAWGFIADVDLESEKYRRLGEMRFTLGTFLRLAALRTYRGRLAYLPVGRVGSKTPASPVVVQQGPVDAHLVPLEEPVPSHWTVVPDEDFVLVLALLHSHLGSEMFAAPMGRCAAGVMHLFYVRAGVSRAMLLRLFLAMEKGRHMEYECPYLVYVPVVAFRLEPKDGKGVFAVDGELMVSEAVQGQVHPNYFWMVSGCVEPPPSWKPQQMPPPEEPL

IC50 [nM] | SMILES
100 to 1000 | CN1CCN(C2CCN(c3nc(-c4ccc5c(c4)C(C)(C)CCC5(C)C)cs3)CC2)CC1 [1-Methyl-4-{1-[4-(5,5,8,8-tetramethyl-5,6,7,8-tetrahydronaphthalen-2-yl)thiazol-2-yl]piperidin-4-yl}piperazine]
100 to 1000 | CC1(C)CCc2cc(-c3csc(N4CCC(N)CC4)n3)ccc21 [1-[4-(1,1-Dimethylindan-5-yl)thiazol-2-yl]piperidin-4-ylamine]
100 to 1000 | CC1(C)CCC(C)(C)c2cc(-c3csc(N4CCC(C5CCNCC5)CC4)n3)ccc21 [1-[4-(5,5,8,8-Tetramethyl-5,6,7,8-tetrahydronaphthalen-2-yl)thiazol-2-yl]-4,4′-bipiperidinyl]
100 to 1000 | CC1(C)CCC(C)(C)c2cc(-c3csc(N4CCNCC4)n3)ccc21 [1-[4-(5,5,8,8-Tetramethyl-5,6,7,8-tetrahydronaphthalen-2-yl)thiazol-2-yl]piperazine]
100 to 1000 | CC1(C)CCC(C)(C)c2cc(-c3csc(N4CCC(N)CC4)n3)ccc21 [1-[4-(5,5,8,8-Tetramethyl-5,6,7,8-tetrahydronaphthalen-2-yl)thiazol-2-yl]piperidin-4-ylamine]
> 1000 | CCOC(=O)C1CCN(c2nc(-c3ccc4c(c3)C(C)(C)CCC4(C)C)cs2)CC1 [1-[4-(5,5,8,8-Tetramethyl-5,6,7,8-tetrahydronaphthalen-2-yl)thiazol-2-yl]piperidine-4-carboxylic acid ethyl ester]
100 to 1000 | CC1(C)CCC(C)(C)c2cc(-c3csc(N4CCC(N)C4)n3)ccc21 (stereo not shown) [1-[4-(5,5,8,8-Tetramethyl-5,6,7,8-tetrahydronaphthalen-2-yl)thiazol-2-yl]pyrrolidin-3-ylamine]
100 to 1000 | CC1(C)CCCc2cc(-c3csc(N4CCNCC4)n3)ccc21 [1-[4-(5,5-Dimethyl-5,6,7,8-tetrahydronaphthalen-2-yl)thiazol-2-yl]-piperazine]
100 to 1000 | CC1(C)CCC(C)(C)c2cc(-c3csc(N4CCC(N5CCCC(O)C5)CC4)n3)ccc21 (stereo not shown) [1′-[4-(5,5,8,8-Tetramethyl-5,6,7,8-tetrahydronaphthalen-2-yl)thiazol-2-yl]-1,4′-bipiperidinyl-3-ol]
100 to 1000 | CC1(C)CCC(C)(C)c2cc(-c3csc(N4CCC(N(CCO)CCO)CC4)n3)ccc21 [2-((2-Hydroxyethyl)-{1-[4-(5,5,8,8-tetramethyl-5,6,7,8-tetrahydronaphthalen-2-yl)thiazol-2-yl]piperidin-4-yl}amino)ethanol]
100 to 1000 | CC1(C)CCC(C)(C)c2cc(-c3csc(C4CCNC4)n3)ccc21 (stereo not shown) [2-Pyrrolidin-3-yl-4-(5,5,8,8-tetramethyl-5,6,7,8-tetrahydronaphthalen-2-yl)thiazole]
100 to 1000 | CC1(C)CCc2cc(-c3csc(N4CCC(NCCO)CC4)n3)ccc21 [2-{1-[4-(1,1-Dimethylindan-5-yl)thiazol-2-yl]piperidin-4-ylamino}ethanol]
100 to 1000 | CC1(C)CCC(C)(C)c2cc(-c3csc(N4CCC5(CCNCC5)CC4)n3)ccc21 [3-[4-(5,5,8,8-Tetramethyl-5,6,7,8-tetrahydronaphthalen-2-yl)thiazol-2-yl]-3,9-diazaspiro[5.5]undecane]
100 to 1000 | CC1(C)CCC(C)(C)c2cc(-c3csc(C4CCCNC4)n3)ccc21 (stereo not shown) [3-[4-(5,5,8,8-Tetramethyl-5,6,7,8-tetrahydronaphthalen-2-yl)thiazol-2-yl]piperidine]
100 to 1000 | CC1(C)CCc2cc(-c3csc(N4CCC(NCCCO)CC4)n3)ccc21 [3-{1-[4-(1,1-Dimethylindan-5-yl)thiazol-2-yl]piperidin-4-ylamino}propan-1-ol]
100 to 1000 | CC1(C)CCC(C)(C)c2cc(-c3csc(N4CCC(CCN5CCCC5)CC4)n3)ccc21 [4-(2-Pyrrolidin-1-ylethyl)-1-[4-(5,5,8,8-tetramethyl-5,6,7,8-tetrahydronaphthalen-2-yl)thiazol-2-yl]piperidine]
100 to 1000 | CC1(C)CCCc2cc(-c3csc(C4CCNC4)n3)ccc21 (stereo not shown) [4-(5,5-Dimethyl-5,6,7,8-tetrahydronaphthalen-2-yl)-2-pyrrolidin-3-yl-thiazole]
> 1000 | CC1(C)CCC(C)(C)c2cc(-c3ncc(C4CCNCC4)o3)ccc21 [4-[2-(5,5,8,8-Tetramethyl-5,6,7,8-tetrahydronaphthalen-2-yl)oxazol-5-yl]piperidine]
100 to 1000 | CC1(C)CCC(C)(C)c2cc(-c3nc(C4CCNCC4)cs3)ccc21 [4-[2-(5,5,8,8-Tetramethyl-5,6,7,8-tetrahydronaphthalen-2-yl)thiazol-4-yl]piperidine]
100 to 1000 | CC1(C)CCCc2cc(-c3csc(C4CCN(CCCCO)C4)n3)ccc21 (stereo not shown) [4-{3-[4-(5,5-Dimethyl-5,6,7,8-tetrahydronaphthalen-2-yl)thiazol-2-yl]-pyrrolidin-1-yl}butan-1-ol]
> 1000 | CC1(C)CCCc2cc(-c3csc(N4CCN(CCCCCO)CC4)n3)ccc21 [5-{4-[4-(5,5-Dimethyl-5,6,7,8-tetrahydronaphthalen-2-yl)thiazol-2-yl]-piperazin-1-yl}pentan-1-ol]
< 100 | CC1(C)CCC(C)(C)c2cc(-c3csc(N4CCC(NCc5c[nH]cn5)CC4)n3)ccc21 [(1H-Imidazol-4-ylmethyl)-{1-[4-(5,5,8,8-tetramethyl-5,6,7,8-tetrahydronaphthalen-2-yl)thiazol-2-yl]piperidin-4-yl}amine]
100 to 1000 | Cn1cncc1CNC1CCN(c2nc(-c3ccc4c(c3)C(C)(C)CCC4(C)C)cs2)CC1 [(3-Methyl-3H-imidazol-4-ylmethyl)-{1-[4-(5,5,8,8-tetramethyl-5,6,7,8-tetrahydronaphthalen-2-yl)thiazol-2-yl]piperidin-4-yl}amine]
100 to 1000 | CC1(C)CCC(C)(C)c2cc(-c3csc(N4CCC(N(Cc5cc[nH]n5)Cc5cc[nH]n5)CC4)n3)ccc21 [Bis-(1H-pyrazol-3-ylmethyl)-{1-[4-(5,5,8,8-tetramethyl-5,6,7,8-tetrahydronaphthalen-2-yl)thiazol-2-yl]piperidin-4-yl}amine]
< 100 | CN(C)C1CCN(c2nc(-c3ccc4c(c3)C(C)(C)CCC4(C)C)cs2)CC1 [Dimethyl-{1-[4-(5,5,8,8-tetramethyl-5,6,7,8-tetrahydronaphthalen-2-yl)thiazol-2-yl]piperidin-4-yl}amine]
